Measurements: article PMC8958504 (Journal of Medicinal Chemistry, 2022)
Several values for one entry are separate records, joined by “and”; a condition that tells them apart may be missing. Equal values may be shown once.

Key:
[1] = Oxygen radical absorbance capacity (ORAC-FL) assay; settings: trolox = 1.0
Description: 2,2′-Azobis-(amidinopropane) dihydrochloride (AAPH), trolox, and fluorescein (FL) were purchased from Sigma-Aldrich. The reaction was carried out in a 75 mM phosphate buffer (pH 7.4), and the final reaction mixture was 200 μL. […] Antioxidant curves (fluorescence vs time) were first normalized to the curve of the blank corresponding to the same assay, and the area under the curve (AUC) of fluorescence decay was calculated. The net AUC corresponding to a sample was calculated by subtracting the AUC corresponding to the blank. Regression equations between the net AUC and antioxidant concentration were calculated for all the samples.

[2] = target: T1, QR2 (Mesocricetus auratus, UniProt A0ABM2YAB8); test: biochemical; settings: for inhibition at 10 µM: read-out: QR2 percentage of inhibition (in brackets)
T1 sequence (A0ABM2YAB8 1-231): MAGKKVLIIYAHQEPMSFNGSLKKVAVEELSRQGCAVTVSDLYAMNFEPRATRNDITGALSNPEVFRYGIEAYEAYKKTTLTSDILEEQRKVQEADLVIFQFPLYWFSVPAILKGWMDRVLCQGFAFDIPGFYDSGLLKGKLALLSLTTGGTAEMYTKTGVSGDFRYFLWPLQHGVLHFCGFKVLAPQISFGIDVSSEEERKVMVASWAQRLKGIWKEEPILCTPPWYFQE
Description: The QR2 experiments were performed in membrane homogenates of hamster brains (https://www.eurofins.fr, catalog ref. 0088). […] First, radioligand displacement was measured at a fixed compound concentration (10 μM) in each receptor.

[3] = tested on: adult mice NSCs; test: Neurogenic studies in SGZ-derived neurospheres; type: cell-based, mouse; settings: 10 μM
Description: Adult mice NSCs were isolated from SGZ of the dentate gyrus of the hippocampus and grown as free-floating neurospheres (NS).[72],[78] The neurogenic potential of each compound was determined using fluorescence confocal microscopy by quantifying the expression of two well-known neuronal markers: human β-III-tubulin (TuJ-1 clone) and microtubule-associated protein 2 (MAP-2). TuJ-1 is expressed in immature neurons, whereas the expression of MAP-2 indicates a consolidated mature neuronal stage.[79] Given that neurogenesis involves not only the proliferation of NSC but also the migration of newly generated cells, the greatest migration distance promoted by each compound was also measured (Figure 8).
Adult male C57BL/6 mice (3 months old) were used in order to determine neurogenesis activity. […] DAPI staining was used as a nuclear marker. Fluorescent representative images were acquired with a Nikon fluorescence microscope 90i coupled to a digital camera Qi. The microscope configuration was adjusted to produce the optimum signal-to-noise ratio. […] Quantification was undertaken using the image analySIS software (Soft Imaging System Corp., Münster, Germany) and normalized to total nuclei (DAPI-stained). The intensity of immunostaining of neurites from TuJ1-labeled cells and the number of MAP-2-positive cells were estimated from nine neurospheres per condition over three independent experiments. The outgrowth of the neurosphere cells was examined under a phase-contrast microscope and the farthest distance of cell migration was calculated from the edge of the sphere. At least 10 plated neurospheres per treatment were analyzed.

[4] = tested on: NRF2-ARE signaling pathway; test: cells; type: cell-based; settings: for NRF2 (CD, μM): concentration required to double luciferase activity, AREc32 cells, 24 h; for EC (2-fold induction): Arec32, 24 h, read-out: NRF2 (CD, μM), concentration required to double luciferase activity, AREc32 cells, 24 h
Description: AREc32 cells were plated in 96-well white plates (2 × 10^4 cells/well). […]. The AREc32 cells constitutively express the plasmid pGL-8xARE that implements eight copies of the EpRE sequences, followed by the luciferase reporter gene. Therefore, NRF2 induction is related to the activation of EpRE sequences, expressing luciferase at the same extent as EpRE sequences are activated. The Luciferase Assay System (Promega E1500) was used according to the provider’s protocol, and luminescence was quantified in an Orion II microplate luminometer (Berthold, Germany). Fold induction of luciferase activity was normalized to basal conditions. Data are expressed as CD values, expressing the concentration required to double the luciferase activity. CD values were calculated from dose–response curves generated from the fold induction of control conditions versus inducer concentration and fitted by nonlinear regression and data interpolated to twofold induction concentration.[68]

[5] = in vitro; type: in vitro ADME; settings: for Papp at 240 min, 100 μg mL^–1: PAMPA, pH 7.4, class from PAMPA-BBB Pe, read-out: CNS-permeability prediction; for PAMPA-BBB (Pe, 10^–6 cm s^–1): porcine brain lipid, PBS/EtOH (70:30), 240 min, 25 °C
[6] = target: T2, hMAO-A (Homo sapiens, UniProt P21397); test: biochemical; settings: read-out: hMAO-A (IC50); recombinant hMAO-A, p-tyramine substrate
T2 sequence (P21397 1-527): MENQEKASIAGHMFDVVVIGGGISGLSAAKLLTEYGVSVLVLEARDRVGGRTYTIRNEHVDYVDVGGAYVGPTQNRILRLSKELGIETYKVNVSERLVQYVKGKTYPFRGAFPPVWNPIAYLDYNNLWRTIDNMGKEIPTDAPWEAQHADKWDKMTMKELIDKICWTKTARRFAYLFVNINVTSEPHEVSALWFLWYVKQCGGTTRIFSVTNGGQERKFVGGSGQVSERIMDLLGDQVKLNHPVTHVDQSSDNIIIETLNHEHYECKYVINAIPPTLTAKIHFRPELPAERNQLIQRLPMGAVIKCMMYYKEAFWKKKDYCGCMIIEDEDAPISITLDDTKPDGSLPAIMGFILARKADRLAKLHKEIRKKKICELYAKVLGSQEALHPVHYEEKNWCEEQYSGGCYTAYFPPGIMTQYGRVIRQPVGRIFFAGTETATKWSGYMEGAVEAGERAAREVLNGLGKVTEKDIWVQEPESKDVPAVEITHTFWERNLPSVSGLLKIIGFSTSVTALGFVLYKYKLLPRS
Description: (§1) The hMAO-A/B inhibition of all compounds was determined using the Amplex Red MAO assay kit.
(§2) Assays were performed following the general procedure previously described.[98] […] The specific fluorescence emission was calculated after subtracting the background activity, which was determined from wells containing all components except the hMAO isoforms, which were replaced with PBS.

[7] = target: T3, hMAO-B (Homo sapiens, UniProt P27338); test: biochemical; settings: for IC50: read-out: hMAO-B (IC50), recombinant hMAO-B, p-tyramine substrate; for inhibition at 50 µM: read-out: hMAO-B percentage of inhibition (in brackets)
T3 sequence (P27338 1-520): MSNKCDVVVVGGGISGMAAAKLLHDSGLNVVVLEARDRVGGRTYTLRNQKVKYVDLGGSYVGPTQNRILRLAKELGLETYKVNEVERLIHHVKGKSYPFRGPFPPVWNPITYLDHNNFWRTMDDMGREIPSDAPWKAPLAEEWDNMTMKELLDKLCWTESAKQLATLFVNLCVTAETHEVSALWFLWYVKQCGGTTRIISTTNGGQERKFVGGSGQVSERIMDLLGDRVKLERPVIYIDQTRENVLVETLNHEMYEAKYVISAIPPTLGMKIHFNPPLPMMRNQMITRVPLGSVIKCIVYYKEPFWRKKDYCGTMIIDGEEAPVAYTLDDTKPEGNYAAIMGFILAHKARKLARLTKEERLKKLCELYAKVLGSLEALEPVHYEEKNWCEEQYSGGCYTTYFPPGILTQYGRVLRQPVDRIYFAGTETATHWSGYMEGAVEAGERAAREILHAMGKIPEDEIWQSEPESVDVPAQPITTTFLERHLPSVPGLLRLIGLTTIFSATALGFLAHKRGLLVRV
Description: as §1, §2

SMILES | ORAC (trolox equiv) [1] [trolox equiv] | IC50 [2] [nM] | inhibition at 10 µM [2] [%] | TuJ-1 and MAP-2 marked cells [3] | cell migration distance [3] | NRF2 (CD, μM) [4] [µM] | Papp at 240 min, 100 μg mL^–1 [5] [×10⁻⁶ cm/s] | PAMPA-BBB (Pe, 10^–6 cm s^–1) [5] | IC50 [6] [µM] | IC50 [7] [µM] | EC (2-fold induction) [4] [µM] | inhibition at 50 µM [7] [%]
O=c1[nH]nc(/C=C/c2cccc([N+](=O)[O-])c2)o1 [2c, 5-[(E)-2-(3-Nitrophenyl)ethenyl]-1,3,4-oxadiazol-2(3H)-one] | <0.1 | ~10000 | 56 | clearly increased | extended | 8.42 ± 0.82 | > 4 | 4.7 ± 0.2 10^–6 cm s^–1 | > 50 | 1.06 ± 0.22 | – | –
COc1cc(/C=C/c2n[nH]c(=O)o2)cc(OC)c1 [2j, 5-[(E)-2-(3,5-Dimethoxyphenyl)ethenyl]-1,3,4-oxadiazol-2(3H)-one] | <0.1 | 510 ± 50 | – | – | – | – | 2 to 4 | 2.1 ± 0.2 10^–6 cm s^–1 | > 50 | > 50 | – | –
C#CCn1nc(/C=C/c2cccc(O)c2)oc1=O [5l, 5-[(E)-2-(3-Hydroxyphenyl)ethenyl]-3-(prop-2-yn-1-yl)-1,3,4-oxadiazol-2(3H)-one] | 2.7 ± 0.2 | 2500 ± 120 | – | – | – | 8.05 ± 1.41 | > 4 | 4.7 10^–6 cm s^–1 and 4.7 ± 0.2 10^–6 cm s^–1 | > 50 | 3.53 ± 0.15 | – | –
COc1ccc(/C=C/c2n[nH]c(=O)o2)cc1OC [2h, 5-[(E)-2-(3,4-Dimethoxyphenyl)ethenyl]-1,3,4-oxadiazol-2(3H)-one] | <0.1 | – | – | – | – | – | 2 to 4 | 2.4 ± 0.3 10^–6 cm s^–1 | > 50 | > 50 | > 60 | –
COc1ccc(/C=C/c2n[nH]c(=O)o2)cc1 [2e, 5-[(E)-2-(4-Methoxyphenyl)ethenyl]-1,3,4-oxadiazol-2(3H)-one] | <0.1 | ~10000 | 68 | – | – | – | > 4 | 6.5 ± 0.5 10^–6 cm s^–1 | > 50 | > 50 | > 60 | 42
O=c1[nH]nc(/C=C/c2cc(O)cc(O)c2)o1 [3p, 5-[(E)-2-(3,5-Dihydroxyphenyl)ethenyl]-1,3,4-oxadiazol-2(3H)-one] | 1.9 ± 0.1 | – | – | – | – | – | < 2 | ≤ 0.1 10^–6 cm s^–1 | > 50 | > 50 | > 60 | –
C#CCNC/C=C/c1ccc(O)c(OC)c1 [8n, 2-Methoxy-4-{(1E)-3-[(prop-2-yn-1-yl)amino]prop-1-en-1-yl}phenol] | 2.1 ± 0.2 | 200 ± 40 | – | – | – | 22.3 ± 2.9 | > 4 | 8.7 10^–6 cm s^–1 and 8.7 ± 0.6 10^–6 cm s^–1 | 30.3 ± 2.5 | > 50 | – | 45
N#Cc1cccc(/C=C/c2n[nH]c(=O)o2)c1 [2b, 3-[(E)-2-(5-Oxo-4,5-dihydro-1,3,4-oxadiazol-2-yl)ethenyl]benzonitrile] | <0.1 | – | – | – | – | 13.7 ± 2.2 | > 4 | 4.5 ± 0.3 10^–6 cm s^–1 | > 50 | > 50 | 13.7 | 38
O=c1[nH]nc(/C=C/c2ccc(O)c(O)c2)o1 [3o, 5-[(E)-2-(3,4-Dihydroxyphenyl)ethenyl]-1,3,4-oxadiazol-2(3H)-one] | 1.7 ± 0.1 | – | – | – | – | 21.3 ± 1.6 | < 2 | ≤ 0.2 10^–6 cm s^–1 | 3.4 ± 0.2 | 5.8 ± 0.4 | – | –
COc1ccc2[nH]cc(CCNC(C)=O)c2c1 [melatonin, reference compound] | – | 77 ± 1 | – | – | – | – | – | – | – | – | – | –
